Patent US5288716A, “Use of pyridoxine derivatives in the prevention and treatment of hyperlipidaemia and atherosclerosis” (priority 1987, dated 1994)
Where a name gives a salt, the structure may show the parent alone.

Tests used:
[1] = tested on: aortae of the rabbits from the heart to the bifurcation; experiment: Aorta changes in hyperlipaemic rabbits after 10 weeks of treatment (120 mg/kg), relative to non-treated rabbits; assay type: in vivo
Method: The values are mean values of 18 rabbits and measured relative to a basis of non-treated rabbits.
The control group received a diet comprising 2% of cholesterol. In the group under treatment each rabbit received additionally 120 mg pyridoxamine.2 HCl/kg body weight. At the end of the test the aortae of the rabbits from the heart to the bifurcation were prepared and examined: […]

[2] = tested on: aorta of rabbits; experiment: Effect of vitamin B6 and the equimolar dose of a derivative thereof on the calcium and lipid content of the aorta of rabbits after 10 weeks; assay type: in vivo; details: control diet 2% cholesterol, pyridoxamine 2HCl 78 mg/kg, pyridoxine HCl 62 mg/kg
From the text: 2. Effect of vitamin B6 and the equimolar dose of a derivative thereof on the calcium and lipid content of the aorta of rabbits after 10 weeks of treatment as compared to a control group fed with a diet containing 2% cholesterol

[3] = Tolerance of vitamin B6 and two derivatives in mice after a single oral dose of 5 g; details: mouse, in vivo, 5000 mg, single oral dose of 5 g, read-out: % death
From the text: 3. Tolerance of vitamin B6 and two derivatives in mice after a single oral dose of 5 g

[4] = tested on: lipid metabolism; details: earlier experiments on animals; cited from earlier work
[5] = tested on: lipid metabolism; experiment: Pyridoxine in rats (own experiments, with a positive control); assay type: in vivo; details: 79 mg/kg body weight
From the text: This was explicitly queried in DE 24 61 742 C2 (column 3, lines 35 ff). […] Pyridoxine was used separately in earlier experiments on animals in conjunction with lipid metabolism (see Frolova, J. A.: Vitamin B6 and lipid metabolism; Vopr. med. Khim. 89, 18. 339-346 (1972)). Its effect, however, is weak.

[6] = tested on: serum lipids; experiment: Effect of vitamin B6 and a derivative thereof on serum lipids in rats after 12 weeks of treatment; assay type: in vivo; details: diet 2.5% cholesterol plus 0.25% cholic acid, 79 mg pyridoxine/kg or equimolar dose
Method: 1. Effect of vitamin B6 and a derivative thereof on serum lipids in rats after 12 weeks of treatment
Group A=rats fed with normal diet without cholesterol
Group B=rats fed with a diet containing 2.5% cholesterol plus 0.25% cholic acid
Group C=as group (B) plus 79 mg pyridoxine/kg bodyweight
Group D=as group (B) plus an equimolar (to pyridoxine) dose of a pyridoxamine derivative
20 animals per group; means ±SD; difference to group B in %

[7] = 2% cholesterol diet, 120 mg/kg body weight, 10 weeks, mean of 18, relative to non-treated

Row | SMILES | calcium in aorta, % difference to control [2] | cholesterol in aorta, % difference to control [2] [%] | dry weight of aorta, % difference to control [2] [%] | total lipids in aorta, % difference to control [2] [%] | triglycerides in aorta, % difference to control [2] | mortality [3] [%] | also measured
1 | Cc1ncc(CO)c(CN)c1O [pyridoxamine.2 HCl] | -24% | -21 | -7 | -15 | -15% | – | decrease of calcium in aorta [1, 7]: 31%; decrease of cholesterol in aorta [1, 7]: 27%; decrease of lipids (total) in aorta [1, 7]: 18%; decrease of triglycerides in aorta [1, 7]: 17%; decrease of changes characteristic for atherosclerosis (thickening of the walls, lipid- and calcium uptake) ([1]; after 10 weeks): substantial decrease
2 | Cc1ncc(CO)c(C=O)c1O [Pyridoxal] | – | – | – | – | – | 100 | –
3 | Cc1ncc(CO)c(CN)c1O [Pyridoxamine] | – | – | – | – | – | 0 | –
4 | Cc1ncc(CO)c(CO)c1O [Pyridoxine] | – | – | – | – | – | 30 | effect on lipid metabolism [4]: weak; effect in rats [5]: ineffective; LDL + VLDL-Cholesterol, difference to group B [6]: -10%; Total serum cholesterol, difference to group B [6]: -4%; LDL + VLDL-Cholesterol ([6]; mean (SD in next line)): 150; Total serum cholesterol ([6]; mean (SD in next line)): 204
5 | Cc1ncc(CO)c(CO)c1O [pyridoxine · HCl] | +21% | -2 | -1 | -3 | +6% | – | –
